Test results: US7214495B2, “Screening method” (Takeda Pharmaceutical Company Limited, priority 2002, dated 2007)

Tests used:
human GPR40 = molecular target: T1, human GPR40 (Homo sapiens, UniProt O14842); assay: EC50 by FLIPR calcium assay in CHO cells stably expressing human GPR40; assay type: cell-based; details: intracellular calcium, FLIPR, stable CHO line; for EC50: read-out: EC50 Human GPR40
T1 construct: The resulting fragment (ca. 1 kb) was introduced into vector pAKKO-111, which was used for transfection of CHO cells; expressed in transfected cells
Experimental: (§1) For determination of EC50 values, the CHO cell lines in which human-, mouse- and rat-derived GPR40 was stably expressed were used. Unless otherwise indicated, these CHO cell lines were incubated in α-MEM medium (Invitrogen) supplemented with 10% fetal calf serum (Invitrogen).
(§2) On the day before assay, the cells incubated to almost confluent stage were rinsed with PBS (Invitrogen), then scraped in 0.05% trypsin-EDTA solution (Invitrogen) and recovered by centrifugal operation. The number of the cells obtained was counted and diluted so as to contain 3×10^5 cells/1 mL of the medium. The dilution was dispensed in a Black welled 96-well plate (Coster) in 100 μL/well, followed by incubation overnight in a CO2 incubator. To the thus prepared CHO cells, various test samples were added and the changes in intracellular calcium level in this case were measured using FLIPR (Molecular Device). In order to determine the changes in the intracellular calcium ion level on FLIPR, the cells were pre-treated by the following procedures.
(§3) First, for the purpose of adding a fluorescent dye Fluo-3 AM (DOJIN) to the cells or washing the cells immediately before the FLIPR assay, an assay buffer was prepared. A solution obtained by adding 20 mL of 1M HEPES (pH 7.4) (DOJIN) to 1000 mL of HBSS (Invitrogen) was prepared (hereinafter HBSS/HEPES solution), to which 10 mL of a solution mixture obtained by dissolving 710 mg of Probenecid (Sigma) in 5 mL of 1N NaOH and further adding 5 mL of HBSS/HEPES solution was added. The resulting solution was used as the assay buffer. Next, 50 μg of Fluo-3AM was dissolved in 21 μL of DMSO (Wako) and an equal volume of 20% Pulronic acid (Molecular Probes) was added to and mixed with the solution. The mixture was then added to 10.6 mL of the assay buffer supplemented with 105 μL of fetal calf serum to prepare a fluorescent dye solution. […], the medium for the CHO cells again plated in a Black welled 96-well plate was removed. Immediately thereafter, the fluorescent dye solution was dispensed in 100 μL each/well and the cells were incubated in a CO2 incubator for an hour so that the fluorescent dye was taken up into the cells. The cells after the incubation was washed with the assay buffer described above and set on FLIPR. […] After the pre-treatment above was made, the changes in intracellular calcium level after the addition of various test samples were measured on FLIPR.

human-derived GPR40 = molecular target: T2, human-derived GPR40 (Homo sapiens, UniProt O14842); assay: Intracellular calcium change (FLIPR) in CHO-hGPR40 No. 104, eicosanoids; assay type: cell-based; details: added in 10^−5 M to 10^−6 M; no response in vector-only control
T2 construct: The DNA fragment encoding human GPR40 was acquired by the following PCR procedures; expressed in transfected cells; host or cells: CHO-K1 (transient, Lipofectamine)
Experimental: The CHO cell line (CHO-hGPR40 No. 104) wherein human GPR40 prepared by publicly known methods using the human GPR40 expression vector prepared in REFERENCE EXAMPLE 1 was expressed was cultured in MEMα medium (Invitrogen) containing 10% fetal calf serum (Invitrogen), unless otherwise indicated. The cells cultured were rinsed with PBS (Invitrogen), scraped in trypsin/EDTA solution (Invitrogen) and recovered by centrifugal operation. The number of the cells obtained was counted and diluted so as to contain 3×10^4 cells/100 μl. The dilution was dispensed in a Black walled 96-well plate (Costar) in 100 μl/well, followed by incubation overnight in a CO2 incubator. The changes in intracellular calcium level in this case were measured using FLIPR (Molecular Device). In order to determine the changes in the intracellular calcium ion level on FLIPR, the cells were pre-treated by the following procedures. First, for the purpose of adding a fluorescent dye Fluo-3 AM (DOJIN) to the cells or washing the cells immediately before the FLIPR assay, an assay buffer was prepared. A solution obtained by adding 20 ml of 1M HEPES (pH 7.4) (DOJIN) to 1000 ml of HBSS (Invitrogen) was prepared (hereinafter HBSS/HEPES solution), to which 10 ml of a solution mixture obtained by dissolving 710 mg of Probenecid (Sigma) in 5 ml of 1N NaOH and further adding 5 ml of HBSS/HEPES solution was added. The resulting solution was used as the assay buffer. Next, 50 μg of Fluo-3AM was dissolved in 21 μl of DMSO (DOJIN) and an equal volume of 20% Pulronic acid (Molecular Probes) was added to and mixed with the solution. The mixture was then added to 10.6 ml of the assay buffer supplemented with 105 μl of fetal calf serum to prepare a fluorescent dye solution. The medium for the CHO cell line cultured was removed. Immediately thereafter, the fluorescent dye solution was dispensed in 100 μl each/well and the cells were incubated in a CO2 incubator for an hour so that the fluorescent dye was taken up into the cells. The cells after the incubation was washed with the assay buffer described above and set on FLIPR. A test sample added to the CHO cell line was prepared using the assay buffer and set on FLIPR at the same time. After the pre-treatment above was made, the changes in intracellular calcium level after the addition of various test samples were measured on FLIPR. […] It was thus noted that GPR40 was responsive to these compounds as well.

MIN6 cells = assay: FLIPR intracellular calcium assay using MIN6; assay type: cell-based, mouse; details: 10 μM fatty acid
Experimental: Mouse pancreatic β cell line MIN6 incubated in a flask was scraped using PBS containing 2.5 mM EDTA and diluted so as to contain 3×10^5 cells/1 mL of the medium. The dilution was dispensed in a Black welled 96-well plate (Coster) in 100 μL/well, followed by incubation in a CO2 incubator for 2 days. The medium used was 4.5 g/l of glucose-containing Dulbecco's Modified Eagle Medium (DMEM, Invitrogen, Inc.) supplemented with 15% fetal calf serum (ThermoTrace, Inc.), 5.5 μM 2-mercaptethanol (Invitrogen, Inc.), 20 mM HEPES pH 7.3, 100 U/ml penicillin and 100 μg/ml streptomycin. To the thus prepared MIN6 cells, various fatty acids (10 μM) were added and the changes in intracellular calcium level in this case were measured using FLIPR (Molecular Device). The changes in the intracellular calcium ion level on FLIPR were assayed in accordance with the procedures described in EXAMPLE 24.

[1] = test system: mouse pancreatic β cell line MIN6; assay: Insulin secretion from MIN6 in KRBH buffer (immunoassay); assay type: cell-based; details: 22 mM glucose KRBH, 90 minutes
Experimental: The mouse pancreatic β cell line MIN6 incubated in a flask was scraped in PBS containing 2.5 mM EDTA and plated in a 96-well plate followed by incubation for 2 days. The medium used was the same as in EXAMPLE 24, namely, 4.5 g/l of glucose-containing Dulbecco's Modified Eagle Medium (DMEM, Invitrogen, Inc.) supplemented with 15% fetal calf serum (ThermoTrace, Inc.), 5.5 μM 2-mercaptethanol (Invitrogen, Inc.), 20 mM HEPES pH 7.3, 100 U/ml penicillin and 100 μg/ml streptomycin. The cells were washed twice with modified Krebs-Ringer bicarbonate buffer (KRBH, 116 mM NaCl, 4.7 mM KCl, 1.2 mM KH2PO4, 1.2 mM MgSO4, 2.5 mM CaCl2, 25 mM NaHCO3, 24 mM HEPES, pH 7.3), followed by preincubation at 37° C. in 5% CO2 for 30 minutes. The fatty acid diluted/prepared using the aforesaid KRBH buffer added with 22 mM glucose was added to the cells after the preincubation, followed by incubation under the conditions of 37° C. in 5% CO2 for 90 minutes. After the incubation, the supernatant of the cells was recovered and stored in a frozen state. The insulin content in the supernatant was assayed using an insulin immunoassay kit commercially available (Amersham Pharmacia, Inc.).
Based on the method of EXAMPLE 25, effects of glucose level when added with fatty acids were examined. The level of glucose, which was added to KRBH upon the addition of fatty acids, was varied to 0, 5.5, 11 and 22 mM to study the effects.
The insulin secretion enhancing activity in the m40i103-introduced MIN6 cells using HVJ Envelope VECTOR KIT GenomONE based on the method of EXAMPLE 18 was examined. The insulin secretion enhancing activity by fatty acids was examined according to the method of EXAMPLE 25.
Based on the procedures of EXAMPLE 25, an essential prerequisite of Ca^2+ ions in the extracellular fluid was examined. In preincubation and incubation with a sample, Ca^2+ ions were removed and 0.1 mM EGTA, which was a reagent for chelating Ca^2+ ions, was further added, and then the insulin secretion enhancing activity by fatty acids was examined in this case.
Based on the method of EXAMPLE 25, effects of Ca^2+ channel blocker (Nifedipine) and MAP kinase inhibitor (PD98059) were examined. In preincubation and incubation with a sample, the insulin secretion enhancing activity by fatty acids was examined when Nifedipine (10 μM) or PD98059 (50 μM) was added.
It is known that fatty acids have the property of binding to albumin. Based on the method of EXAMPLE 25, effects were examined when bovine serum albumin (BSA) was present. In preincubation and incubation with a sample, the insulin secretion activity by fatty acids was examined when 0.1% BSA was added to the buffer.

Mouse GPR40 = molecular target: T3, Mouse GPR40 (Mus musculus, UniProt Q76JU9); assay: EC50 by FLIPR calcium assay in CHO cells stably expressing mouse GPR40; assay type: cell-based; details: intracellular calcium, FLIPR, stable CHO line
T3 construct: expressed in transfected cells
Experimental: as §1, §2, §3

Rat GPR40 = molecular target: T4, Rat GPR40 (Rattus norvegicus, UniProt Q8K3T4); assay: EC50 by FLIPR calcium assay in CHO cells stably expressing rat GPR40; assay type: cell-based; details: intracellular calcium, FLIPR, stable CHO line
T4 construct: expressed in transfected cells
Experimental: as §1, §2, §3

[2] = test system: mouse insulinoma MIN6 cells; assay: Insulin secretion from MIN6 cells with free fatty acid-BSA mixture (RIA); assay type: cell-based; details: 300 μM to 1000 μM; fatty acid-BSA 4:1; 11 mM glucose; 90 (or 60) minutes
Experimental: The MIN6 cells were cultured in DMEM (high glucose, Invitrogen) containing 15% FCS (Trace Scientific Ltd.), 55 μM 2-mercaptoethanol, 100 U/ml penicillin and 100 μg/ml streptomycin, unless otherwise indicated. MIN6 cells were plated in a 96-well plate in 10^5 cells/well, followed by incubation at 37° C. for 3 days in a CO2 incubator adjusted to a concentration of 5% CO2. The medium was replaced by RPMI1640 (glucose free, Invitrogen) containing 10% FCS (Trace Scientific Ltd.), 5.5 mM glucose, 100 U/ml penicillin and 100 μg/ml streptomycin, followed by incubation for further 24 hours. After the medium was removed by suction, a solution mixture of free fatty acid-bovine serum albumin (BSA) (in a molar ratio of 4:1) diluted with RPMI1640 (glucose free, Invitrogen) containing 10% FCS (Trace Scientific Ltd.), 11 mM glucose, 100 U/ml penicillin and 100 μg/ml streptomycin was added to the cells, followed by reacting in a CO2 incubator adjusted to a 5% CO2 concentration at 37° C. for 90 minutes (or 60 minutes). After the reaction, the 96-well plate was centrifuged at 1500 rpm for 5 minutes and the culture supernatant was then recovered. The amount of insulin secreted into the culture supernatant was determined by radioimmunoassay (RIA) using the rat insulin RIA system (Amersham Pharmacia).

T2 sequence (O14842 whole entry, the tested form may be a part): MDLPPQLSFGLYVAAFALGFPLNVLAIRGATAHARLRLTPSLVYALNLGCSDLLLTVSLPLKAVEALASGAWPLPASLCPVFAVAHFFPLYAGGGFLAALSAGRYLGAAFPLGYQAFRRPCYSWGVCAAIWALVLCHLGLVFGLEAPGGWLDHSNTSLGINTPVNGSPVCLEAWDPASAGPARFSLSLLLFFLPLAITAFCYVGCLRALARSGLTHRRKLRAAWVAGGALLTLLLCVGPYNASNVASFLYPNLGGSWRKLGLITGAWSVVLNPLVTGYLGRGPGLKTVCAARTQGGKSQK
T1 sequence (O14842 whole entry, the tested form may be a part): as above
T4 sequence (Q8K3T4 whole entry): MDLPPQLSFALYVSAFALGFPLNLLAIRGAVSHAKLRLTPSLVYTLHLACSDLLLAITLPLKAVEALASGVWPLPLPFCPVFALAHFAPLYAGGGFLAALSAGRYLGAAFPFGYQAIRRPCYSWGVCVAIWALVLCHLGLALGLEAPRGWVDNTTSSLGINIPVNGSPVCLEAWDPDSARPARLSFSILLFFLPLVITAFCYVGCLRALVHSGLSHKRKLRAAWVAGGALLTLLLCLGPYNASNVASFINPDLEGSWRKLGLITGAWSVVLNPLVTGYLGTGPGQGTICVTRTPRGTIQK
T3 sequence (Q76JU9 whole entry): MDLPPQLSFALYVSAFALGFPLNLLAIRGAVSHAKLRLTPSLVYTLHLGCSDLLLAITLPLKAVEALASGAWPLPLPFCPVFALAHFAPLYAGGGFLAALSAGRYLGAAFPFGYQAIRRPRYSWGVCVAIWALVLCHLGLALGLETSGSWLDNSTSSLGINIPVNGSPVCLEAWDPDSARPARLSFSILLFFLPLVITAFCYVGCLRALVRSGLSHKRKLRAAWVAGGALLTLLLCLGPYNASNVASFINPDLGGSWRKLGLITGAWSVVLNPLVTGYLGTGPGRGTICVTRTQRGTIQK

| Structure (SMILES) | EC50 (human GPR40) | response (increase in intracellular calcium level) of GPR40-expressing CHO cell line (human-derived GPR40) | further results |
| --- | --- | --- | --- |
| CCCCC/C=C\C/C=C\CCCCCCCC(=O)OC [Methyl linolate] |  |  | intracellular Ca^2+ level in MIN6 (MIN6 cells): not observed; insulin secretion enhancing activity [1]: did not show any significant insulin secretion enhancing activity; EC50 Human GPR40 (human GPR40): inactive; EC50 Mouse GPR40 (Mouse GPR40): inactive; EC50 Rat GPR40 (Rat GPR40): inactive |
| CCCCCC=CCC=CCC1OC1CC=CCCCC(=O)O (mixture of isomers) [8,9-Epoxyeicosatrienoic acid, (±)8(9)-epoxy-5Z,11Z,14Z-eicosatrienoic acid] | 6.1 ± 0.2 µM | specifically responsive |  |
| CCCCCC=CCC=CCC=CCC1OC1CCCC(=O)O (mixture of isomers) [5,6-Epoxyeicosatrienoic acid, (±)5(6)-epoxy-8Z,11Z,14Z-eicosatrienoic acid] | 7.7 ± 0.2 µM | specifically responsive |  |
| CCCCCCCCCCCCCCCC(=O)O [Palmitic acid (C16), Palmitic acid] | 6.8 ± 0.5 µM |  | EC50 (Mouse GPR40; read-out: EC50 Mouse GPR40): 4.6 ± 1.2 µM; insulin secretion by MIN6 cells [2]: promoted; EC50 (Rat GPR40; read-out: EC50 Rat GPR40): 6.6 ± 0.4 µM |

The next lines start with results.

| EC50 (human GPR40) | response (increase in intracellular calcium level) of GPR40-expressing CHO cell line (human-derived GPR40) | Structure (SMILES) | further results |
| --- | --- | --- | --- |
| 1.4 ± 0.3 µM | specifically responsive | CCCCCC=CCC1OC1CC=CCC=CCCCC(=O)O (mixture of isomers) [11,12-Epoxyeicosatrienoic acid, (±)11(12)-epoxy-5Z,8Z,14Z-eicosatrienoic acid] |  |
| 1.1 ± 0.4 µM | specifically responsive | CCCCCC(O)C(O)CC=CCC=CCC=CCCCC(=O)O (mixture of isomers) [14,15-Dihydroxyeicosatrienoic acid, (±)14,15-dihydroxy-5Z,8Z,11Z-eicosatrienoic acid] |  |
|  | specifically responsive | CCCCCC1OC1C/C=C\C/C=C\C/C=C\CCCC(=O)O (racemic) [14,15-EET, (±)14(15)-epoxy-5Z,8Z,11Z-eicosatrienoic acid] |  |
